Usually IC50 stands for the concentration needed to halve the response being measured. Low readings indicate greater potency, high ones weaker potency. By ILS is commonly meant how much longer treated animals lived than controls.

The structures appear in SMILES notation. Like-named read-outs stand apart in the source and are kept apart here.

Data set [1] relates to ACHN renal adenocarcinoma. Kind of data set: Test Example 10: antitumor activity against human tumors, ACHN. Conditions: CDDP alone. It is filed as cell-based. As for the experimental part:
(§1) After the culture medium was removed with suction, the respective residues were washed once with cold PBS (-), supplemented with 2 ml portions of fresh medium and then cultured for further 72 hours. The cells were treated with trypsin, diluted and then counted using a Coulter counter.
(§2) Culture medium MEM: 10% fetal calf serum, Kanamycin (60 μg/ml)
ACHN: renal adenocarcinoma

For data set [2], the system named is WiDr colon adenocarcinoma. Kind of data set: Test Example 10: antitumor activity against human tumors, WiDr. It is filed as cell-based. The conditions noted are these: CDDP alone. The procedure:
as §1, §2
WiDr: colon adenocarcinoma;

Data set [3] concerns A549 pulmonary adenocarcinoma. Kind of data set: Test Example 10: antitumor activity against human tumors, A549. It is filed as cell-based. The conditions noted are these: CDDP alone. The procedure:
as §1, §2
A549: pulmonary adenocarcinoma;

Data set [4] has as its system DLD-1 colon adenocarcinoma. Kind of data set: Test Example 10: antitumor activity against human tumors, DLD-1. It is filed as cell-based. Conditions: CDDP alone. As for the experimental part: as §1, §2
DLD-1: colon adenocarcinoma;

The subject of data set [5] is Colon 26 colon tumor cells. Kind of data set: Test Example 9: in vitro antitumor activity, Colon 26. It is filed as cell-based, mouse. Conditions: CDDP alone. As for the experimental part: (§3) Mouse Colon 26 colon tumor cells were adjusted to 5×10^3 cells/ml in culture medium […] culture was dispensed in 2 ml portions into culture Petri dishes. […] The culture medium was removed with suction, and after washing once with cold PBS(-) 2 ml portions of fresh medium were dispensed into the cultures, which were then cultured for further 72 hours. The cells were treated with trypsin, diluted and then counted using a Coulter counter.

The subject of the next data set is LU65 pulmonary cancer. Kind of data set: Test Example 10: antitumor activity against human tumors, LU65. The class given is cell-based. The conditions noted are these: CDDP alone. As for the experimental part:
as §1, §2

The subject of data set [6] is L1210 leukemic cells. Kind of data set: Test Example 7: in vitro antitumor activity, L1210. The conditions noted are these: test drug alone. It is filed as cell-based, mouse. The procedure: (§4) Mouse L1210 and P388 leukemic cells were adjusted to 10^4 cells/ml in culture medium RPMI 1640, and the mixture was dispensed in 2 ml portions into culture test tubes (Falcon No. 2054) and cultured at 37° C. for 5 hours in the presence of 5% carbonic acid gas in a carbonic acid gas incubator. CDDP and/or SAMes were (was) then added into each culture test tube and incubation was continued for further one hour. The cultures were centrifuged at 1,600 rpm for 5 minutes and the culture medium was removed with suction. Two ml of RPMI 1640 was added to the residue and the mixture was cultured for 72 hours under the same conditions as described above, whereafter the number of cells in each of the resulting cultures was measured on a Coulter counter (Model ZB).

Another data set has as its system mouse tumors. Nature of the data set: Antitumor activity in vitro, mouse tumors (summary). It is filed as cell-based. Conditions: CDDP alone. As for the experimental part: as §4, §3
In a further data set the test system is PA-1 ovarian teratoma. Nature of the data set: Test Example 10: antitumor activity against human tumors, PA-1. Conditions: CDDP alone. It is filed as cell-based. As for the experimental part: as §1, §2
Data set [7] relates to L1210 leukemic cells. Kind of data set: Test Example 11: potentiation by intraperitoneally or intravenously administered SAMe against mouse tumor L1210. It is filed as in vivo, mouse (CDF1).
Description: Groups each containing six 8- to 9-week-old male CDF1 mice weighing 24-28 g were used. Mouse L1210 leukemic cells (10^5 cells) were transplanted into the abdominal cavity (on day 0).
Data set [8] concerns MKN45 gastric adenocarcinoma. Nature of the data set: Test Example 10: antitumor activity against human tumors, MKN45. The conditions noted are these: CDDP alone. The class given is cell-based. As for the experimental part:
as §1, §2
MKN45: gastric adenocarcinoma;

The test system of data set [9] is MKN28 gastric adenocarcinoma. Kind of data set: Test Example 10: antitumor activity against human tumors, MKN28. It is filed as cell-based. Conditions: CDDP alone. As for the experimental part: as §1, §2
MKN28: gastric adenocarcinoma;

Data set [10] concerns MCAS ovarian cyst adenocarcinoma. Kind of data set: Test Example 10: antitumor activity against human tumors, MCAS. The class given is cell-based. The conditions noted are these: CDDP alone. As for the experimental part:
as §1, §2
MCAS: ovarian cyst adenocarcinoma;

The subject of data set [11] is L1210 leukemic cells. Nature of the data set: Test Example 8: in vivo potentiation of antitumor activity of CDDP, L1210. Details: species or system mouse (CDF1 strain). Conditions: for Animals showing 30 days of survival / ILS: days 1 and 5; for Change in body weight: day 7 minus day 1. From the text: Groups each containing six 8-week-old male mice of the CDF1 strain, weighing 24-28 g, were used. Mouse L1210 leukemic cells (10^5 cells) were transplanted into the abdominal cavity (on day 0).
wherein T stands for the average number of days of survival in the CDDP-administered groups of animals, and C for that in the non-CDDP-administered group (control group) of animals.
When the animals survived 30 days or more, the number of days of survival was deemed as 30 days for the purpose of calculation.
The administration was carried out intraperitoneally each time (on days 1 and 5). […] And the changes in body weight are presented as the difference between the mean body weights on days 1 and 7 (average body weight on day 7--average body weight on day 1) for each group.

Another data set has as its system P388 leukemic cells. Kind of data set: Test Example 7: in vitro antitumor activity, P388. The class given is cell-based, mouse. The conditions noted are these: CDDP alone. The procedure: The cultures were centrifuged at 1,600 rpm for 5 minutes and the culture medium was removed with suction.
A further data set concerns human tumors. Kind of data set: Antitumor activity in vitro, human tumors (summary). The conditions noted are these: CDDP alone. The class given is cell-based. As for the experimental part:
Human tumor cells which are listed below were adjusted to 5×10^3 -2×10^4 cells/ml in culture medium RPMI 1640 (N.B. 1) or MEM (N.B. 2), and the respective cultures were dispensed in 2 ml portions into culture Petri dishes. […] After the culture medium was removed with suction, the respective residues were washed once with cold PBS (-), supplemented with 2 ml portions of fresh medium and then cultured for further 72 hours. The cells were treated with trypsin, diluted and then counted using a Coulter counter.

For data set [12] the following is noted: intraperitoneal administration, rat; cited from earlier work.
Data set [13] has as its system nephrotoxicity caused by CDDP. Nature of the data set: Test Example 2: nephrotoxicity (BUN) after single administration of CDDP in the dog. The class given is in vivo, dog (beagle). The conditions noted are these: for BUN concentration: mean ± SD. The procedure: Nine beagle dogs (weighing 10.2-14.5 kg; 24-36 months of age) were divided into three groups of three animals each. […] BUN values were measured every two days after the administration and compared.

The test system of another data set is tumor cells. Nature of the data set: Antitumor activity, all tumor cells tested (summary). It is filed as cell-based, mouse and human. Conditions: SAMe alone, respective tumor cells. As for the experimental part:
as §4
Mouse Colon 26 colon tumor cells were adjusted to 5×10^3 cells/ml in culture medium […] culture was dispensed in 2 ml portions into culture Petri dishes. […] The cells were treated with trypsin, diluted and then counted using a Coulter counter.
Human tumor cells which are listed below were adjusted to 5×10^3 -2×10^4 cells/ml in culture medium RPMI 1640 (N.B. 1) or MEM (N.B. 2), and the respective cultures were dispensed in 2 ml portions into culture Petri dishes. […] The cells were treated with trypsin, diluted and then counted using a Coulter counter.

The format of data set [14] is in vivo, rat (SD strain). Conditions: for Concentration of SH compounds in blood plasma (as converted to glutathione concentration) / Concentration of SH compounds in renal tissue (as converted to glutathione concentration): mean ± S.D. As for the experimental part: Test method: To 6-week-old rats of the SD strain was intravenously administered SAMe in physiological saline (30 mg/kg, pH 6), and the blood level of SH group-containing compounds in the renal tissue was measured thereafter at 30, 60 and 120 minutes (N. Kaplowits et al., J. Pharmacol. Exp. Ther. , 1977, 200, 279-286) .
The values in the table for the concentration of SH compounds in the renal tissue and blood plasma presented as means ± standard deviation as calculated on the assumption that all the SH compounds were glutathione.

The conditions of data set [15]: in vivo, iv.
[16] abbreviates: 30 min after SAMe 30 mg/kg i.v.
The mark [17] stands for this setting: 60 min after SAMe 30 mg/kg i.v.
The mark [18] stands for this setting: 120 min after SAMe 30 mg/kg i.v.

As for `N.N.[Cl][Pt][Cl]` [CDDP, cis-diamine-dichloroplatinum], the IC50 was 48.4 µM in data set [1]; 37.7 µM in [2]; 18.7 µM in data set [3]; 23.5 µM in [4]; 41.7 µM in [5]; 20.3 µM with LU65 pulmonary cancer. Moreover, the IC50 in the data set with L1210 leukemic cells [6] is 16.2 µM; with mouse tumors it was 3.5 to 41.7 µM; in the data set with PA-1 ovarian teratoma it was 4.1 µM; in data set [8], 25.4 µM; in data set [9] it was 62.8 µM; in [10], 150 µM. Further, the IC50 was 3.5 µM in the data set with P388 leukemic cells and 4.1 to 150 µM with human tumors. The increase in life span (ILS) in the data set with L1210 leukemic cells [7] (CDDP 4 mg/kg alone, intraperitoneal) came to 78%; in the data set on L1210 leukemic cells [7] (CDDP 4 mg/kg alone, intravenous) it was 28%; with L1210 leukemic cells [7] (CDDP 6 mg/kg alone, intraperitoneal) it was 84%; in the data set on L1210 leukemic cells [11] (CDDP 4 mg/kg alone i.p.) it was 73%; in the data set on L1210 leukemic cells [11] (CDDP 6 mg/kg alone i.p.), 121%. Further, the “Animals showing 30 days of survival” value in the data set with L1210 leukemic cells [11] (CDDP 4 mg/kg alone i.p.) and in the data set on L1210 leukemic cells [11] (CDDP 6 mg/kg alone i.p.) was 0/6 in each case. Further, the “Change in body weight” value in the data set with L1210 leukemic cells [11] (CDDP 4 mg/kg alone i.p.) is on record as -2.4 g; with L1210 leukemic cells [11] (CDDP 6 mg/kg alone i.p.), -4.5 g.

With `C[S+](CC[C@H](N)C(=O)O)C[C@H]1O[C@@H](n2cnc3c(N)ncnc32)[C@H](O)[C@@H]1O` (stereo partly drawn) [SAMe, S-adenosyl-L-methionine], the LD50 in data set [12] is on record as 2,000-2,500 mg/kg. Further, the BUN concentration was determined as 15.0 ± 1.04 mg/dL in data set [13] (SAMe 30 mg/kg i.v. with CDDP 4 mg/kg, day 1); 167.2 ± 102.30 mg/dL in [13] (SAMe 30 mg/kg i.v. with CDDP 4 mg/kg, day 6); 41.62 ± 0.00 mg/dL in data set [13] (SAMe 30 mg/kg i.v. with CDDP 4 mg/kg, day 12); 13.4 ± 2.80 mg/dL in [13] (SAMe 100 mg/kg i.v. with CDDP 4 mg/kg, day 1); 27.6 ± 19.151 mg/dL in [13] (SAMe 100 mg/kg i.v. with CDDP 4 mg/kg, day 6); 25.5 ± 13.36 mg/dL in [13] (SAMe 100 mg/kg i.v. with CDDP 4 mg/kg, day 12). The “Mortality by day 7” value in [13] (SAMe 30 mg/kg with CDDP 4 mg/kg) is given as “two out of the three animals”. Further, the 50% inhibitory concentration (IC50) with tumor cells was at least 1 mM; with L1210 leukemic cells [6] (Mus musculus), over 1000 µM. Moreover, the “Concentration of SH compounds in blood plasma (as converted to glutathione concentration)” value came out at 12.2 ± 2.7 μg/ml blood plasma in data set [14] (setting [16]), 12.5 ± 2.1 μg/ml blood plasma in data set [14] (setting [17]) and 18.5 ± 3.0 μg/ml blood plasma in data set [14] (setting [18]). Besides, the results for the “Concentration of SH compounds in renal tissue (as converted to glutathione concentration)” value in data set [14] (setting [16]), in data set [14] (setting [17]) and in [14] (setting [18]) were 1219.3 ± 68.3 μg/g organ, 1256.0 ± 125.3 μg/g organ and 1201.1 ± 37.8 μg/g organ, respectively. For the same compound, the “Accumulation in renal tissue” value in data set [14] (rat, in vivo, iv) was “accumulate the SAMe specifically in the renal tissue”. Moreover, the “Distribution to renal tissue” value in [15] is reported as “concentrates specifically at the renal tissue”. For the same compound, the “Metabolism at the renal tissue” value in [15] is on record as “converted through the process of transmethylation to S-adenosylhomocysteine”.

Values taken from patent publication US5466678A, “Co-administration of S-adenosyl-L-methionine to reduce the nephrotoxicity of cisplatin therapy” (priority 1992, dated 1995).
